Here are results for 2 molecules from patent US9750817B2, “Amphotericin B derivatives” (priority 2015, dated 2017).

The test system of one series is C. albicans (CBS562). The series is described as follows: MIC of compound 6, AMB and FMOC-6. The series is classed as cell-based, Candida albicans. As for the experimental part:
(§1) Efficacy was evaluated by measuring minimum inhibitory concentration (MIC) and minimum fungicidal concentration (MFC) values for fungal isolates. Testing of isolates was performed according to the Clinical & Laboratory Standards Institute (CLSI) method. (CLSI. 2008. M27-A3 Reference method for broth dilution antifungal susceptibility testing of yeasts; Approved Standard—3rd edition. Clinical and Laboratory Standards Institute, Wayne). RPMI MOPS media was used throughout the experiment as growth and dilution media. Spores and yeast cells were harvested in 0.05% Tween from 24-48 h and cultures were grown in rich yeast extract-agar-glucose (YAG) medium (composed of: 0.5% w/v yeast extract, 1% w/v glucose, 10 millimolar (mM) MgCl2, supplemented with 0.1% v/v trace elements solution, and 0.2% v/v vitamin mix). The spores and the yeast cells were counted and diluted to a final concentration of 2.5×10^4 per ml. A stock solution of 5 mg/ml was prepared in dimethylsulfoxide for free AMB. Compounds 4 and 6 were prepared in sterile saline. Double dilutions of each drug were performed in 100 μL volume of RPMI-MOPS in 96 well plates beginning with a final concentration of 32 micrograms (μg)/well of each drug to 0.06 μg/well. 2500 spores or yeast cells were added to each well. Results were recorded 48 h post incubation at 37° C. […] The MFC was defined as the lowest drug concentration that yielded three or fewer colonies (i.e. 99% of the inoculum was killed).
(§2) In addition, the amine protected equivalent of compound 6 in which the amine of compound 6 was protected with an FMOC group was tested (designated FMOC-6) to determine MIC versus AMB and versus compound 6 against A. fumigatus (Af 293) and C. albicans (CBS562).

Series [1] is described as follows: Pharmacokinetics upon single intravenous administration. More on the design: ke: unit not given here. Conditions: mouse serum, IV bolus; AMB 1 mg/kg, Compound 6 5 mg/kg. It counts as in vivo, mice. As to the method:
AMB and Compound 6 solution in saline were administrated intravenously (IV) to groups of mice at a dose of 1 and 5 mg/kg body weight, respectively. The mice received an IV bolus via the tail vein. Mice were bled over a 48 h period at the following time points: 0, 5, 15 and 30 minutes and 1, 2, 6, 12, 24 and 48 h post-dosing (3 mice per time point). Bleeding was conducted using a facial vein technique into sterile Eppendorf tubes. Whole blood samples of 150 μl were collected at each time point, stored for 30 min at room temperature for clotting and centrifuged at 10,000 RPM for 10 minutes until serum separated. The serum samples were stored at −20° C.
The concentration of Compound 6 in the serum was measured by HPLC as follows: UltiMate® 3000 system (Dionex) was used equipped with 3000 pump, VWD-3000 UV-Vis detector and Chromeleon® 6.80 software. The column used was LiChroCART® 250×4.6 mm Purospher® STAR (5 μm) C-18 RP (reverse phase). Chromatographic conditions: flow: 1.0 ml/min, linear water (buffer A)/acetonitrile (ACN) (buffer B) gradient (buffer A—100% water, 0.1% TFA; buffer B—100% ACN, 0.1% TFA).
200 μl of methanol was added to 100 μl of serum sample and vortexed for 20 seconds, stored for 30 min at room temperature (22° C.), then centrifuged at 14,000 RPM for 10 minutes. The supernatant was filtered through a 0.22 μm filter and aliquots of 100 μl were analyzed by HPLC. AMB and Compound 6 were detected at a wavelength of 407 nm.
The pharmacokinetic graphs depicting drug concentration over time are shown in FIGS. 8A-8B (over 24 hours and 120 minutes respectively) and the calculated PK values are shown in Table 6 below.

The next series deals with human erythrocytes. The series is described as follows: In-vitro toxicity (hemolysis) study. The series is classed as cell-based. The conditions noted are these: 6 μg/ml; for toxicity to erythrocytes: assay conditions of FIG. 4B. As to the method:
Reference is made to FIG. 4B. Fresh human erythrocytes were diluted 1:100 in PBS, and incubated in an Eppendorf tube while rotating slowly in the presence of 6 μg/ml of each of compound 4 and compound 6. Amphotericin B was used as positive control. Sterile double distilled water served as a control for 100% hemolysis. After 1, 3, 5 and 21 h, 20 μl of each test tube were removed and diluted in 180 μl PBS. Samples were centrifuged for 10 minutes at 1200 RPM and the optical density of the supernatant was measured at 425 nm.

The test system of a further series is C. albicans. The series can be described thus: Fungal burden in kidneys of infected mice. It counts as in vivo. Conditions: AMB 1 mg/kg; Compound 6 1.75, 3.5 and 7 mg/kg. As to the method:
Reference is made to FIGS. 6A-E. ICR female mice were inoculated with C. albicans in groups of 3 as described in example 6B and were killed 48 hours later for assessment of fungal burden. One kidney and the spleen were removed aseptically from each animal and homogenized in 1 mL of sterile normal saline. Serial 10-fold dilutions of the homogenates were spread on YAG plates, and colony-forming units (CFU)/organ was determined from the colony count after 24 hours incubation at 37° C. All mouse experiments were performed in duplicates.
At necropsy, fungal burden in mouse tissues was evaluated. […] FIGS. 6C-E show micrographs of mice treated with Compound 6 at dosages of 1.75 mg/kg, 3.5 mg/kg and 7 mg/kg, respectively.

A short description of series [2]: Solubility in double-distilled water. It counts as physicochemical. Conditions: double-distilled water. As for the experimental part:
Physical characteristics of AMB derivatives and of AMB were tested, including solubility.

The next series relates to A. fumigatus (Af 293). The series is described as follows: MIC of compound 6, AMB and FMOC-6. It counts as cell-based, Aspergillus fumigatus. As for the experimental part: as §1, §2
The nature of series [3]: Solubility in 0.9% saline after vortex, sonication and centrifuge. The series is classed as physicochemical.
The nature of series [4]: Stability (hydrolysis) in phosphate buffered saline. It counts as physicochemical.

The structures appear in SMILES notation. In brackets after ≈: the same amount, converted by molar mass. Several values for one entry are separate records, joined by “and”; a condition that tells them apart may be missing. Equal values may be shown once.

As for `C[C@@H]1[C@H](O)[C@@H](C)/C=C/C=C/C=C/C=C/C=C/C=C/C=C/[C@H](O[C@@H]2O[C@H](C)[C@@H](O)[C@H](N)[C@@H]2O)C[C@@H]2O[C@](O)(C[C@@H](O)C[C@@H](O)[C@H](O)CC[C@@H](O)C[C@@H](O)CC(=O)O[C@H]1C)C[C@H](O)[C@H]2C(=O)O` [AMB, Amphotericin B], the minimal inhibitory concentration (MIC) in the series on C. albicans (CBS562) was found to be 0.25 µg/mL. Moreover, in series [1], the AUC0-24 was 63.983 µg·h/mL, the CL is 0.250 mL/h, the MRT0-24 stood at 9.664 h and the Vd is recorded as 0.006 L. In addition, the t1/2 in series [1] is 15.96 h and 15.964 h. The molecule also gave a hemolysis with human erythrocytes (after 3 h of agitation) of 76%. Besides, the “toxicity to erythrocytes” value in the series with human erythrocytes was “very toxic”. For the same molecule, the “fungal hyphae in kidney sections (Fontana-Masson silver staining)” value in the series on C. albicans is listed as “barely detectable”. For the same molecule, the Solubility in series [2] is under 0.001 mg/mL. For the same molecule, the MIC in the series on A. fumigatus (Af 293) came to 0.5 µg/mL.

For `COC(=O)C1C(O)CC2(O)CC(O)CC(O)C(O)CCC(O)CC(O)CC(=O)OC(C)C(C)C(O)C(C)C=CC=CC=CC=CC=CC=CC=CC(OC3OC(C)C(O)C(NC(=O)CCOCCOCCOCCOCCOCCOCCOCCOCCN)C3O)CC1O2` (centres unmarked) [Compound 6, amphotericin B amide, methyl ester-PEG(8)-amine], the “increased solubility relative to corresponding non-PEG-conjugated AMB compounds” value in series [3] is “greater than 700 fold”. Further, the MIC with C. albicans (CBS562) was found to be 2 µg/mL. In series [1], this molecule showed an AUC0-24 of 421.234 µg·h/mL, a CL of 0.508 mL/h, an MRT0-24 of 5.431 h and a Vd of 0.002 L. In series [1], the ke turned out to be 0.220 and the t1/2 came to 3.153 h. In the series with human erythrocytes (after 3 h of agitation), the “hemolytic activity” value is reported as “only slightly hemolytic”. In addition, the “toxicity to erythrocytes” value with human erythrocytes is recorded as “negligible toxicity”. The “hydrolysis after 4 hours” value in series [4] (4 hours) is given as “no hydrolysis could be observed”. In addition, the “level of hydrolysis after 24 hours” value in series [4] (24 hours) was found to be 0.8%. The “fungal hyphae in kidney sections (Fontana-Masson silver staining)” value in the series with C. albicans is listed as “barely detectable”. In series [2], this molecule registered a Solubility of 0.7 mg/mL (≈ 514 µM). For the same molecule, the minimum inhibitory concentration (MIC) with A. fumigatus (Af 293) was 2 µg/mL.
